Tested on: six V600E BRAF melanoma cell lines
Assay: Screening of recombinant RTK ligands for ability to confer resistance to BRAFi (PLX4720) or MEKi (PD184352) (Table 4)
Type: cell-based, human
Parameters: ability of recombinant RTK ligand to confer resistance / ability of recombinant RTK ligand to confer resistance (screening value): scale not given here
How it was run: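 Resistance to BRAFi (PLX4720) or MEKi (PD184352) was tested in six V600E BRAF melanoma lines given one of 22 recombinant RTK ligands. For a subset of RTKs, activation was checked by high-throughput tyrosine kinase phosphorylation profiling and western blot.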

NGF
ability of recombinant RTK ligand to confer resistance (A2058, PD184352 - 1 uM, ligand 0.4 ng/ml): 0.98
ability of recombinant RTK ligand to confer resistance (A2058, PD184352 - 1 uM, ligand 1.6 ng/ml): 0.95
ability of recombinant RTK ligand to confer resistance (A2058, PD184352 - 1 uM, ligand 6.25 ng/ml): 1.09
ability of recombinant RTK ligand to confer resistance (A2058, PD184352 - 1 uM, ligand 25 ng/ml): 0.99
ability of recombinant RTK ligand to confer resistance (A2058, PD184352 - 1 uM, ligand 100 ng/ml): 0.99
ability of recombinant RTK ligand to confer resistance (A2058, PLX4720 - 2 uM, ligand 0.4 ng/ml): 1.04
ability of recombinant RTK ligand to confer resistance (A2058, PLX4720 - 2 uM, ligand 1.6 ng/ml): 1.02
ability of recombinant RTK ligand to confer resistance (A2058, PLX4720 - 2 uM, ligand 6.25 ng/ml): 1.06
ability of recombinant RTK ligand to confer resistance (A2058, PLX4720 - 2 uM, ligand 25 ng/ml): 1.07
ability of recombinant RTK ligand to confer resistance (A2058, PLX4720 - 2 uM, ligand 100 ng/ml): 0.98
ability of recombinant RTK ligand to confer resistance (C32, PD184352 - 1 uM, ligand 0.4 ng/ml): 1.00
ability of recombinant RTK ligand to confer resistance (C32, PD184352 - 1 uM, ligand 1.6 ng/ml): 1.07
ability of recombinant RTK ligand to confer resistance (C32, PD184352 - 1 uM, ligand 6.25 ng/ml): 1.07
ability of recombinant RTK ligand to confer resistance (C32, PD184352 - 1 uM, ligand 25 ng/ml): 0.98
ability of recombinant RTK ligand to confer resistance (C32, PD184352 - 1 uM, ligand 100 ng/ml): 1.03
ability of recombinant RTK ligand to confer resistance (C32, PLX4720 - 2 uM, ligand 0.4 ng/ml): 0.98
ability of recombinant RTK ligand to confer resistance (C32, PLX4720 - 2 uM, ligand 1.6 ng/ml): 0.98
ability of recombinant RTK ligand to confer resistance (C32, PLX4720 - 2 uM, ligand 6.25 ng/ml): 1.03
ability of recombinant RTK ligand to confer resistance (C32, PLX4720 - 2 uM, ligand 25 ng/ml): 0.97
ability of recombinant RTK ligand to confer resistance (C32, PLX4720 - 2 uM, ligand 100 ng/ml): 0.87
ability of recombinant RTK ligand to confer resistance (Colo 829, PD184352 - 1 uM, ligand 0.4 ng/ml): 1.04
ability of recombinant RTK ligand to confer resistance (Colo 829, PD184352 - 1 uM, ligand 1.6 ng/ml): 1.03
ability of recombinant RTK ligand to confer resistance (Colo 829, PD184352 - 1 uM, ligand 6.25 ng/ml): 1.04
ability of recombinant RTK ligand to confer resistance (Colo 829, PD184352 - 1 uM, ligand 25 ng/ml): 0.94
ability of recombinant RTK ligand to confer resistance (Colo 829, PD184352 - 1 uM, ligand 100 ng/ml): 1.02
ability of recombinant RTK ligand to confer resistance (Colo 829, PLX4720 - 2 uM, ligand 0.4 ng/ml): 0.96
ability of recombinant RTK ligand to confer resistance (Colo 829, PLX4720 - 2 uM, ligand 1.6 ng/ml): 0.96
ability of recombinant RTK ligand to confer resistance (Colo 829, PLX4720 - 2 uM, ligand 6.25 ng/ml): 1.02
ability of recombinant RTK ligand to confer resistance (Colo 829, PLX4720 - 2 uM, ligand 25 ng/ml): 0.96
ability of recombinant RTK ligand to confer resistance (Colo 829, PLX4720 - 2 uM, ligand 100 ng/ml): 1.03
ability of recombinant RTK ligand to confer resistance (G-361, PD184352 - 1 uM, ligand 0.4 ng/ml): 1.09
ability of recombinant RTK ligand to confer resistance (G-361, PD184352 - 1 uM, ligand 1.6 ng/ml): 0.78
ability of recombinant RTK ligand to confer resistance (G-361, PD184352 - 1 uM, ligand 6.25 ng/ml): 0.97
ability of recombinant RTK ligand to confer resistance (G-361, PD184352 - 1 uM, ligand 25 ng/ml): 0.85
ability of recombinant RTK ligand to confer resistance (G-361, PD184352 - 1 uM, ligand 100 ng/ml): 0.94
ability of recombinant RTK ligand to confer resistance (G-361, PLX4720 - 2 uM, ligand 0.4 ng/ml): 1.10
ability of recombinant RTK ligand to confer resistance (G-361, PLX4720 - 2 uM, ligand 1.6 ng/ml): 0.87
ability of recombinant RTK ligand to confer resistance (G-361, PLX4720 - 2 uM, ligand 6.25 ng/ml): 0.91
ability of recombinant RTK ligand to confer resistance (G-361, PLX4720 - 2 uM, ligand 25 ng/ml): 0.92
ability of recombinant RTK ligand to confer resistance (G-361, PLX4720 - 2 uM, ligand 100 ng/ml): 0.94
ability of recombinant RTK ligand to confer resistance (SK-MEL-5, PD184352 - 1 uM, ligand 0.4 ng/ml): 1.03
ability of recombinant RTK ligand to confer resistance (SK-MEL-5, PD184352 - 1 uM, ligand 1.6 ng/ml): 1.04
ability of recombinant RTK ligand to confer resistance (SK-MEL-5, PD184352 - 1 uM, ligand 6.25 ng/ml): 0.96
ability of recombinant RTK ligand to confer resistance (SK-MEL-5, PD184352 - 1 uM, ligand 25 ng/ml): 1.07
ability of recombinant RTK ligand to confer resistance (SK-MEL-5, PD184352 - 1 uM, ligand 100 ng/ml): 1.09
ability of recombinant RTK ligand to confer resistance (SK-MEL-5, PLX4720 - 2 uM, ligand 0.4 ng/ml): 1.00
ability of recombinant RTK ligand to confer resistance (SK-MEL-5, PLX4720 - 2 uM, ligand 1.6 ng/ml): 1.03
ability of recombinant RTK ligand to confer resistance (SK-MEL-5, PLX4720 - 2 uM, ligand 6.25 ng/ml): 0.85
ability of recombinant RTK ligand to confer resistance (SK-MEL-5, PLX4720 - 2 uM, ligand 25 ng/ml): 0.93
ability of recombinant RTK ligand to confer resistance (SK-MEL-5, PLX4720 - 2 uM, ligand 100 ng/ml): 0.92
ability of recombinant RTK ligand to confer resistance (SK-MEL-28, PD184352 - 1 uM, ligand 0.4 ng/ml): 0.91
ability of recombinant RTK ligand to confer resistance (SK-MEL-28, PD184352 - 1 uM, ligand 1.6 ng/ml): 0.92
ability of recombinant RTK ligand to confer resistance (SK-MEL-28, PD184352 - 1 uM, ligand 6.25 ng/ml): 0.99
ability of recombinant RTK ligand to confer resistance (SK-MEL-28, PD184352 - 1 uM, ligand 25 ng/ml): 0.96
ability of recombinant RTK ligand to confer resistance (SK-MEL-28, PD184352 - 1 uM, ligand 100 ng/ml): 1.08
ability of recombinant RTK ligand to confer resistance (SK-MEL-28, PLX4720 - 2 uM, ligand 0.4 ng/ml): 0.89
ability of recombinant RTK ligand to confer resistance (SK-MEL-28, PLX4720 - 2 uM, ligand 1.6 ng/ml): 0.97
ability of recombinant RTK ligand to confer resistance (SK-MEL-28, PLX4720 - 2 uM, ligand 6.25 ng/ml): 1.05
ability of recombinant RTK ligand to confer resistance (SK-MEL-28, PLX4720 - 2 uM, ligand 25 ng/ml): 1.00
ability of recombinant RTK ligand to confer resistance (SK-MEL-28, PLX4720 - 2 uM, ligand 100 ng/ml): 1.12

From patent US20140348819A1, “Methods of Treating Cancer” (Dana-Farber Cancer Institute, Inc., priority 2011, published 2014)
